*1 amine or outer side, *2 acyl side, *3 side chain or, on linkers, in order; H or OH if unused. Where a SMILES comes first, the peptide text is derived from it. Side-chain parts run from the residue outwards. [ ]: non-standard residue; d: D form. The star is where a group is joined. C18 diacid = O=C(O)CCCCCCCCCCCCCCCCC(=O)*; γGlu = O=C(O)[C@H](CCC(=O)[*:2])N[*:1]; Ac4c = NC1(C(=O)O)CCC1; AEEA = NCCOCCOCC(=O)O; Aib = CC(C)(N)C(=O)O
Columns and labels:
[1] = biological target: T1, endogenous glucagon receptor (Rattus norvegicus, UniProt P30082); test: Agonistic activity on endogenous glucagon receptor (glycogen synthesis rate in primary rat hepatocytes); type: cell-based; conditions: inhibition of glycogen synthesis rate (14C-glucose incorporation), 3 hours
T1 construct: Agonistic activity of the test compounds on endogenous glucagon receptor; endogenous in cells; host or cells: primary rat hepatocytes
Description: Agonistic activity of the test compounds on endogenous glucagon receptor was determined by measuring their effect on rate of glycogen synthesis in primary rat hepatocytes. Upon activation of the glucagon receptor, an inhibition of the glycogen synthesis rate is expected. Rate of glycogen synthesis was determined by counting the amount of radioactively labeled glucose incorporated into the cellular glycogen stores in a defined period of time.
Primary rat hepatocytes were cultured at a density of 40,000 cells/well in a 24-well plate for 24 hours at 37° C. and 5% CO2.
Medium was discarded and the cells washed with PBS. 180 μL of KRBH-based buffer containing 0.1% BSA and glucose at a concentration of 22.5 mM was then added to the wells, followed by test compound and 40 μCi/ml D-[U14C] glucose (20 μL each). Incubation was continued for 3 hours.
At the end of the incubation period, the incubation buffer was aspirated and cells washed once with ice-cold PBS before lysis by incubation for 30 min at room temperature with 100 μL 1 mol/l NaOH.
Cell lysates were transferred to 96-well filter plates and glycogen precipitated by incubating the filter-plates for 120 min at 4° C. followed by washing the filter plates 4 times with ice-cold ethanol (70%). The resulting precipitates were filtered to dryness and the amount of incorporated ^14C-glucose determined by using a Topcount scintillation counter according to manufacturer's recommendations.
Wells with vehicle controls (0.1% (v/v) DMSO in KRBH buffer) were included as reference for non-inhibited glycogen synthesis (100% CTL). Wells without added D-[U^14C] glucose were included as controls for non-specific background signal (subtracted from all values). Endogenous glucagon peptide was used as a positive control.
All treatments were performed at least in duplicates.
Parameters calculated to describe both the potency as well as the agonistic activity of each test compound on the endogenous glucagon receptor are pEC50 and % CTL.
% CTL is determined by calculating the percentage of CPM/well in the presence of the test compound compared to the CPM/well of the vehicle control after subtracting the background CPM/well: [CPM/well(basal)−CPM/well(sample)]*100/[CPM/well(basal)−CPM/well(control)]
An activator of the glucagon receptor will result in an inhibition of the glycogen synthesis rate and will give % CTL values between 0% CTL (complete inhibition) and 100% CTL (no observable inhibition).
The resulting activity curves were plotted as absolute counts (unit: cpm/sample) over log (test compound concentration) and analyzed using the curve fitting program XLfit.
pEC50 (negative logarithmic value of EC50) reflects the potency of the test compound. […]

[2] = biological target: T2, human glucagon-like peptide 1 receptor (GLP-1R) (Homo sapiens, UniProt P43220); test: GLP-1 receptor efficacy assay (cAMP AlphaScreen, CHO cells); type: cell-based; conditions: for Ratio GLP-1/Glucagon: EC50 [GLP-1R] / EC50 [Glucagon-R], human receptors in CHO-K1
T2 construct: expressed in transfected cells
Source text: (§1) The cDNA encoding either the human glucagon receptor (Glucagon-R) (primary accession number P47871) or the human glucagon-like peptide 1 receptor (GLP-1R) (primary accession number P43220) were synthesized and cloned into a mammalian expression vector containing a Zeocin resistance marker.
(§2) The mammalian expression vectors encoding the Glucagon-R or the GLP-1-R were transfected into Chinese hamster ovary (CHO) cells by the Attractene method. Stably expressing clones were obtained by Zeocin selection (250 μg/mL) upon limited dilution of cells resistant to the selection pressure. Glucagon-R and GLP-1-R cell clones expressing were picked, propagated and tested in the Glucagon-R and GLP-1-R efficacy assays as described below. One Glucagon-R expressing clone and one GLP-1-R expressing clone were chosen for compound profiling.
(§3) CHO cells expressing the human Glucagon-R, or human GLP-1-R were seeded 24 hours prior to the assay at 30,000 cells per well in 96-well microtiter plates in culture in 100 μl growth medium. On the day of analysis, growth medium was removed and the cells were washed once with 200 μl of assay buffer (Krebs-Ringer-buffer—KRBH). The buffer was removed and the cells were incubated for 15 min at room temperature in 10 μl KRBH (KRBH+10 mM HEPES, 5 mM NaHCO3, 0.1% (V/V) BSA) with 0.1 mM IBMX in deionized water containing increasing concentrations of test peptides. The reaction was stopped by the addition of lysis buffer (0.1% w/v BSA, 5 mM HEPES, 0.3% v/v Tween-20). After cell lysis for 10 min at room temperature, lysates were transferred to 384-well plates and 10 μl of acceptor/donorbead mixture as contained in the AlphaScreen™ cAMP Functional Assay Kit was added. After one hour of incubation at room temperature in the dark, the cAMP content was determined applying the AlphaScreen™ cAMP Functional Assay Kit from Perkin-Elmer according to manufacturer instructions. EC50 and relative efficacies compared to reference compounds (glucagon and GLP-1) were calculated applying computer aided curve fitting. The GLP-1/glucagon ratio is calculated as defined earlier.

[3] = Pharmacokinetic parameters after intravenous administration to rats; conditions: male, Han/Wistar, rat, in vivo, 20 nmol/kg
Description: Pharmacokinetic parameters of the test compounds were determined after intravenous administration to Han/Wistar rats. The acylated GLP-1 analogue semaglutide was also tested for comparison purposes. Male Wistar rats were obtained from Charles River (Germany) weighing approximately 180 to 210 g at time of arrival at the test facility. Rats were caged in European standard rat cages type IV with light cycle of 12-hour dark and 12-hour light. During the study rats were housed in standard rat cages type III. Both diet Altromin 1324 (Altromin, Germany) and water was administered ad libitum during the whole experimental period. The animals were housed in the test facility for at least 4 days in order to assure proper acclimatization. The compounds were first dissolved in 0.1% aqueous ammonia to a nominal concentration of 2 mg/ml, and then diluted to the desired dosing strength (10 μM) in sterile PBS containing 25 mM phosphate buffer, pH 7.4. Intravenous injections corresponding to 20 nmol/kg were given via a lateral tail vein. Blood samples (200 μl) were collected from the periorbital plexus at time points 0.08, 0.25, 0.5, 1, 2, 4, 8, 24, 32 and 48 h post dosing into K3EDTA tubes and centrifuged for 5 minutes at 4° C. within 20 minutes of sampling. […] Individual plasma concentration-time profiles were analysed by a non-compartmental approach using ToxKin™ version 3.2 (Unilog IT Services), and the resulting pharmacokinetic parameters were determined.

[4] = biological target: T3, human glucagon receptor (Glucagon-R) (Homo sapiens, UniProt P47871); test: Glucagon receptor efficacy assay (cAMP AlphaScreen, CHO cells); type: cell-based; conditions: cAMP formation, CHO cells expressing human Glucagon-R, 15 min; read-out: EC50 hGCGR CHO-K1
T3 construct: expressed in transfected cells
Source text: as §1, §2, §3

T2 sequence (P43220 24-463): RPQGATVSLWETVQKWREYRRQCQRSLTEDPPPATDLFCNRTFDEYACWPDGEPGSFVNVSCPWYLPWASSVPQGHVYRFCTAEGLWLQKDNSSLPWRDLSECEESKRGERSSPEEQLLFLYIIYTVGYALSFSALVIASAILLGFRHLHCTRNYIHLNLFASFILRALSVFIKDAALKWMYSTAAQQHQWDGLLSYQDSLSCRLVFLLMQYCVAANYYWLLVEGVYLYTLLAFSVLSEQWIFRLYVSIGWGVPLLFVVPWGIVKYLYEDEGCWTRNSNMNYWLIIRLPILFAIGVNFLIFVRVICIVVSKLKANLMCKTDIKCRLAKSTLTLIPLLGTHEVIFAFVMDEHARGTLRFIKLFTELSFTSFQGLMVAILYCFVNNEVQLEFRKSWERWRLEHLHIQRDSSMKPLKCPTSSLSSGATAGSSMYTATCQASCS
T1 sequence (P30082 27-485): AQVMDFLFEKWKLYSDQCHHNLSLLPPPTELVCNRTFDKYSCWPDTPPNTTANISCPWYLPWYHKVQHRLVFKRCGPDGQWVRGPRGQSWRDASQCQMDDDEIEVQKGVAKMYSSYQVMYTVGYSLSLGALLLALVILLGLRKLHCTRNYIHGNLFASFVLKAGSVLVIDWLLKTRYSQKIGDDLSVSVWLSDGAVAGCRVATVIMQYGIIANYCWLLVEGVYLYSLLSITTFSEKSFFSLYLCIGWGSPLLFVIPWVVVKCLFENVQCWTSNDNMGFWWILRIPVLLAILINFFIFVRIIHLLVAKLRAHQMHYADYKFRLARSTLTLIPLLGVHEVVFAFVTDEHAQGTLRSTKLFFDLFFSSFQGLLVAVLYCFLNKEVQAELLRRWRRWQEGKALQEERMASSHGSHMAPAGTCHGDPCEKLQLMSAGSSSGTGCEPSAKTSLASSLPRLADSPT
T3 sequence (P47871 26-477): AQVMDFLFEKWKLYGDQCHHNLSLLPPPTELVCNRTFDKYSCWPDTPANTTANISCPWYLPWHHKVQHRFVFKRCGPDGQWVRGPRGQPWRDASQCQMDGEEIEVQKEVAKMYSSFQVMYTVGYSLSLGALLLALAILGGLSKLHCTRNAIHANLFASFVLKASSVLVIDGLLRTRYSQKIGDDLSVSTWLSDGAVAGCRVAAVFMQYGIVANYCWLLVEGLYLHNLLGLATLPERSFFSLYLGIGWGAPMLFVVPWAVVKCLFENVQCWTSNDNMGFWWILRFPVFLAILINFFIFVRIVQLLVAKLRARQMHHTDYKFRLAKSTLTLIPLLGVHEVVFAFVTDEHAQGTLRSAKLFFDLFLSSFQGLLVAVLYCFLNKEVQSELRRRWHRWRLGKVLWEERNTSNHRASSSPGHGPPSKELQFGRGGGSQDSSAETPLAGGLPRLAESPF

EC50 [1] [nM]	Ratio GLP-1/Glucagon [2]	MRT [3] [h]	clearance [3] [mL/min/kg]	half-life [3] [h]	EC50 [4] [nM]	EC50 ([2]; cAMP formation, CHO cells expressing human GLP-1-R, 15 min, read-out: EC50 hGLP-1R CHO-K1) [nM]	SMILES
0.11	13.54	13.6	0.11	9.1	–	–	CC[C@H](C)[C@H](NC(=O)[C@H](Cc1ccccc1)NC(=O)[C@H](CC(=O)O)NC(=O)[C@H](CCCCN)NC(=O)[C@H](C)NC(=O)[C@H](C)NC(=O)[C@H](CCCNC(=N)N)NC(=O)[C@H](CCCCNC(=O)COCCOCCNC(=O)COCCOCCNC(=O)CC[C@H](NC(=O)CCCCCCCCCCCCCCCCC(=O)O)C(=O)O)NC(=O)[C@H](CC(=O)O)NC(=O)[C@H](CC(C)C)NC(=O)[C@H](Cc1ccc(O)cc1)NC(=O)[C@H](CCCCN)NC(=O)[C@H](CO)NC(=O)[C@H](Cc1ccc(O)cc1)NC(=O)[C@H](CC(=O)O)NC(=O)[C@H](CO)NC(=O)[C@@H](NC(=O)[C@H](Cc1ccccc1)NC(=O)[C@@H](NC(=O)CNC(=O)[C@H](CCC(N)=O)NC(=O)C(C)(C)NC(=O)[C@@H](N)Cc1c[nH]cn1)[C@@H](C)O)[C@@H](C)O)C(=O)N[C@@H](CCC(=O)O)C(=O)N[C@@H](Cc1c[nH]c2ccccc12)C(=O)N[C@@H](CC(C)C)C(=O)N[C@@H](CCC(=O)O)C(=O)N[C@@H](CO)C(=O)N[C@@H](C)C(N)=O [Compound 2, H-H-Aib-QGTFTSDYSKYLD-K([17-carboxy-heptadecanoyl]-isoGlu-Peg3-Peg3)-RAAKDFIEWLESA-NH2] (H-H[Aib]QGTFTSDYSKYLDK([AEEA-AEEA-γGlu-C18 diacid])RAAKDFIEWLESA-NH2)
0.19	3.33	–	–	–	0.18	–	CC[C@H](C)[C@H](NC(=O)[C@H](Cc1ccccc1)NC(=O)[C@H](CC(=O)O)NC(=O)[C@H](CCCCN)NC(=O)[C@H](C)NC(=O)[C@H](CCCNC(=N)N)NC(=O)[C@H](CCCNC(=N)N)NC(=O)[C@H](CCC(=O)O)NC(=O)[C@H](CC(=O)O)NC(=O)[C@H](CC(C)C)NC(=O)[C@H](Cc1ccc(O)cc1)NC(=O)[C@H](CCCCN)NC(=O)[C@H](CO)NC(=O)[C@H](Cc1ccc(O)cc1)NC(=O)[C@H](CC(=O)O)NC(=O)[C@H](CO)NC(=O)[C@@H](NC(=O)[C@H](Cc1ccccc1)NC(=O)[C@@H](NC(=O)CNC(=O)[C@H](CCC(N)=O)NC(=O)C1(NC(=O)[C@@H](N)Cc2c[nH]cn2)CCC1)[C@@H](C)O)[C@@H](C)O)C(=O)N[C@@H](CCCCNC(=O)CNC(=O)CNC(=O)[C@H](CO)NC(=O)CNC(=O)[C@H](CO)NC(=O)CNC(=O)CC[C@H](NC(=O)CCCCCCCCCCCCCCCCC(=O)O)C(=O)O)C(=O)N[C@@H](Cc1c[nH]c2ccccc12)C(=O)N[C@@H](CC(C)C)C(=O)N[C@@H](CCC(=O)O)C(=O)N[C@@H](CO)C(=O)N[C@@H](C)C(N)=O [Compound 14]
0.19	3.31	–	–	–	–	–	CC[C@H](C)[C@H](NC(=O)[C@H](Cc1ccccc1)NC(=O)[C@H](CC(=O)O)NC(=O)[C@H](CCCCN)NC(=O)[C@H](C)NC(=O)[C@H](CCCNC(=N)N)NC(=O)[C@H](CCCNC(=N)N)NC(=O)[C@H](CCC(=O)O)NC(=O)[C@H](CC(=O)O)NC(=O)[C@H](CC(C)C)NC(=O)[C@H](Cc1ccc(O)cc1)NC(=O)[C@H](CCCCN)NC(=O)[C@H](CO)NC(=O)[C@H](Cc1ccc(O)cc1)NC(=O)[C@H](CC(=O)O)NC(=O)[C@H](CO)NC(=O)[C@@H](NC(=O)[C@H](Cc1ccccc1)NC(=O)[C@@H](NC(=O)CNC(=O)[C@H](CCC(N)=O)NC(=O)C1(NC(=O)[C@@H](N)Cc2c[nH]cn2)CCC1)[C@@H](C)O)[C@@H](C)O)C(=O)N[C@@H](CCC(=O)O)C(=O)N[C@@H](Cc1c[nH]c2ccccc12)C(=O)N[C@@H](CC(C)C)C(=O)N[C@@H](CCC(=O)O)C(=O)N[C@@H](CCCCNC(=O)CNC(=O)CNC(=O)[C@H](CO)NC(=O)CNC(=O)[C@H](CO)NC(=O)CNC(=O)CC[C@H](NC(=O)CCCCCCCCCCCCCCCCC(=O)O)C(=O)O)C(=O)N[C@@H](C)C(N)=O [Compound 16]
0.11	13.86	–	–	–	0.07	0.97	CC[C@H](C)[C@H](NC(=O)[C@H](Cc1ccccc1)NC(=O)[C@H](CC(=O)O)NC(=O)[C@H](CCCCN)NC(=O)[C@H](C)NC(=O)[C@H](CCCNC(=N)N)NC(=O)[C@H](CCCCNC(=O)COCCOCCNC(=O)COCCOCCNC(=O)CC[C@H](NC(=O)CCCCCCCCCCCCCCCCC(=O)O)C(=O)O)NC(=O)[C@H](CCC(=O)O)NC(=O)[C@H](CC(=O)O)NC(=O)[C@H](CC(C)C)NC(=O)[C@H](Cc1ccc(O)cc1)NC(=O)[C@H](CCCCN)NC(=O)[C@H](CO)NC(=O)[C@H](Cc1ccc(O)cc1)NC(=O)[C@H](CC(=O)O)NC(=O)[C@H](CO)NC(=O)[C@@H](NC(=O)[C@H](Cc1ccccc1)NC(=O)[C@@H](NC(=O)CNC(=O)[C@H](Cc1c[nH]cn1)NC(=O)C1(NC(=O)[C@@H](N)Cc2c[nH]cn2)CCC1)[C@@H](C)O)[C@@H](C)O)C(=O)N[C@@H](CCC(=O)O)C(=O)N[C@@H](Cc1c[nH]c2ccccc12)C(=O)N[C@@H](CC(C)C)C(=O)N[C@@H](CCC(=O)O)C(=O)N[C@@H](CO)C(=O)N[C@@H](C)C(N)=O [Compound 9, H-H-Ac4c-HGTFTSDYSKYLDE-K([17-carboxy-heptadecanoyl]-isoGlu-Peg3-Peg3)-RAKDFIEWLESA-NH2] (H-H[Ac4c]HGTFTSDYSKYLDEK([AEEA-AEEA-γGlu-C18 diacid])RAKDFIEWLESA-NH2)
